Read-outs that look alike come from different tables or passages of the source.
How the values were obtained:
[1] = molecular target: T1, PKCε (Homo sapiens, UniProt Q02156); experiment: Protein kinase C assay, purified/recombinant PKC epsilon (32P incorporation into histones); assay type: biochemical; details: for activation of purified PKCε / concentration needed to activate PKC, times lower than for BR-101 (DCP-LA): FIG. 3
T1 construct: purchased Calbiochem
T1 sequence (Q02156 1-737): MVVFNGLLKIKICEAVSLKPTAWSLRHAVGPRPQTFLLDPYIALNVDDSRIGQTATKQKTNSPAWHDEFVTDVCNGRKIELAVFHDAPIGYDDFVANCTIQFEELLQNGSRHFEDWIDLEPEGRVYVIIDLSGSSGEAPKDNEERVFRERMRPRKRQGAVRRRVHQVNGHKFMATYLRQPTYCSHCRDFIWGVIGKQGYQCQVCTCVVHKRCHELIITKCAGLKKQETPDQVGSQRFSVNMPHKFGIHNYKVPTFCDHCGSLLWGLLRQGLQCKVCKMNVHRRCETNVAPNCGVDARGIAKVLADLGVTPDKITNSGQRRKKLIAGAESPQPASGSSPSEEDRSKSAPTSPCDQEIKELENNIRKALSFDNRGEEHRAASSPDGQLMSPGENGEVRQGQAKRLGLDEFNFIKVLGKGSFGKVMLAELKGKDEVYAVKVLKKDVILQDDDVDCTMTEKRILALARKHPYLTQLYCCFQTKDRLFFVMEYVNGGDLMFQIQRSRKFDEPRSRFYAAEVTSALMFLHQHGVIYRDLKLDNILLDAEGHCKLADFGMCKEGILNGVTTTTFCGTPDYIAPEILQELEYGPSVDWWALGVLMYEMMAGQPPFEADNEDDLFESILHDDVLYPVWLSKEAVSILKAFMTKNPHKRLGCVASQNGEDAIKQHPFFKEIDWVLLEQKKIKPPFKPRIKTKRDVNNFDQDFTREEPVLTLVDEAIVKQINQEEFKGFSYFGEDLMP
Procedure: Protein kinase C assay. Recombinant PKC (1 ng of alpha or epsilon isofonn) was mixed with the BR-101 (UCP-LA) in the presence of 10 micromoiar histones, 5 mM CaCl2, 1.2 μg/μl phosphatidyl-L-serine, 0.18 μg/μl 1,2-dioctanoyl-sn-glycerol (DAG), […], […] (pH 7.4), 0.8 tnIVI EDTA, 4 mM EGTA, 4% glycerol, 8 μg/ml aprotinin, 8 μ/ml leupeptin, and 2 mM benzamidine. 0.5 micro Ci [^y32P]ATP was added. The incubation mixture was incubated for 15 min at 37 degrees in a total volume of 10 microliters. The reaction was stopped by spotting the reaction mixtures on 1×2 cm strips of cellulose phosphate paper (Whatman P81) and immediately washing twice for 1 hr in 0.5% H3PO4. The cellulose phosphate strips were counted in a scintillation counter. In some experiments, phosphatidylserine, diacylglycerol, and/or calcium were removed.
(§1) Protein kinase C assay. Rat hippocampal cells were cultured and scraped in 0.2 ml homogenization buffer (20 triM Tris-HCl, pH 7.4, 50 mM NaF, 1 μg/ml leupeptin, and 0.1 mM PMSF) and homogenized by sonication in a Marsonix micro-probe sonicator (5 see, 10W). To measure PKC, 10 ul of cell homogenate or purified. PKC isozyme (purchased from Calbiochem) was incubated for 15 min at 37° C. in the presence of 10 μM histones, 4.89 mM CaCl2, 1.2 μg/μl phosphatidyl-L-serine, 0.18 μg/μl 1,2-dioctanoyl-sn-glycerol, 10 mM MgCl2, 20 mM HEPES (pH 7.4), 0.8 mM EDTA, 4 mM EGTA, 4% glycerol, 8 μg/ml aprotinin, 8 μg/ml leupeptin, and 2 mM benzamidine. 0.5 μCi [^γ-32P]ATP was added and ^32P-phosphoprotein formation was measured by adsorption onto phosphocellulose as described previously. Nelson and Alkon, J. Neurochemistry. 1995; 65: 2350-57. For measurements of activation by BR-101 (DCP-LA) and similar compounds, PKC activity was measured in the absence of diacylglycerol and phosphatidyl serine, as described by Kanno et al., and PKC δ, ε, η, and μ were measured in the absence of added EGTA and CaCl2, as described by Kanno et al., J. Lipid Res. 2006; 47: 1146-50. Low concentrations of Ca^2+ are used because high Ca^2+ interacts with the PKC phosphatidylserine binding site and prevents activation. For measurements of bryostatin activation, 1,2-diacylglycerol was omitted unless otherwise stated.
To determine their PKC isozyme specificity, the new compounds were preincubated with purified PKC for five minutes and the PKC activity was measured radiometrically.

[2] = tested on: rats; details: cited from earlier work
[3] = tested on: PKC; experiment: PKC activity time course in rat H19-7/IGF-IR hippocampal cells; assay type: cell-based
Procedure: (§2) Cell culture. Rat hippocampal H19-71GF-IR cells (ATCC, Manassas, Va.) were plated onto poly-L-lysine coated plates and grown at 35° C. in DMEM/10% FCS for several days until about 50% coverage was obtained. The cells were then induced to differentiate into a neuronal phenotype by replacing the medium with 5 ml N2 medium containing 10 ng/ml basic fibroblast growth factor at 39° C. and grown in T-75 flasks at 37° C. Human SH-SY5Y neuroblastoma cells (ATCC) were cultured in 45% F12K/45% MEM/10% FCS. Mouse N2A neuroblastoma cells were cultured in DMEM/10% FCS without glutamine. Rat hippocampal neurons from 18-day-old embryonic
as §1

[4] = tested on: Aβ; experiment: Aβ levels in N2a neuroblastoma cells transfected with human APPSwe/PSID (Aβ1-42 ELISA); assay type: cell-based, mouse; details: 24 h incubation, various concentrations
Procedure: as §2
(§3) AB Measurement and Cell Viability Assay. Aβ was measured using an Aβ1-42 human fluorimetric ELISA kit (Invitrogen) according to the manufacturer's instructions. Results were measured in a Biotek Synergy HT microplate reader. AlamarBlue and CyQuant NF (Invitrogen) according to the manufacturer's instructions.
To measure the effects of PKCε activation on Aβ production, we used mouse neuro2a (N2a) neuroblastoma cells transfected with human APPSwe/PSID, which produce large quantities of Aβ. Petanceska et al., J Neurochem. 1996; 74: 1878-84. […] With bryostatin, which activates PKC by binding to the diacylglycerol-binding site, the inhibition was biphasic, with concentrations of 20 nM or higher producing no net effect. This may be explained by the ability of this class of PKC activators to downregulate PKC when used at high concentrations.

[5] = tested on: Endothelin-converting enzyme (ECE); experiment: ECE assay in SH-SY5Y neuroblastoma cells; assay type: cell-based, human; details: bryostatin 0.27 nM, BR-101 1 μM, BR-111 1 μM; FIG. 10
Procedure: ECE assay. SH-S757 neuroblastoma cells were incubated with bryostatin (0.27 nM), BR-101 (PCP-LA) (1 μM), and BR-111 (DHA-CP6) (1 μM). Endothelin-converting enzyme (ECE) was measured fluorimetrically using the method of Johnson and Ahn, Anal. Biochem. 2000; 286: 112-118. A sample of cell homogenate (20 μl) was incubated in 50 mM MES-KOH, pH 6.0, 0.01% C12E10 (polyoxyethylene-10-tauryl ether), and 15 μM McaBK2. (7-Methoxycournarin-4-acetyl [Ala7-(2,4-Dinitrophenyl)Lys9]-bradykinin trifluoroacetate salt) (Sigma-Aldrich). After 60 min at 37° C., the reaction was quenched by adding trifluoroacetic acid to 0.5%. The sample was diluted to 1.4 ml with water and the fluorescence was measured at ex=334 nm, em=398 nm.

[6] = tested on: a-secretase; details: human fibroblasts, cited from earlier work
[7] = tested on: TACE; experiment: TACE assay in N2a mouse neuroblastoma cells; assay type: cell-based; details: FIG. 9a
Procedure: (§4) TACE Assay. TACE was measured by incubating 5 μl cell homogenate, 3 μl buffer (50 mM Tris-HCl 7.4 plus 25 mM NaCl plus 4% glycerol), and 1 of 100 μM TACE substrate IV (Aβz-LAQAVRSSSR-DPa) (Calbiochem) for 20 min at 37° in 1.5-ml polypropylene centrifuge tubes (Jin et al., Anal Biochem. 2002; 302: 269-75). The reaction was stopped by cooling to 4° C. The samples were diluted to 1 ml and the fluorescence was rapidly measured (ex=320 nm, em=420 nm) in a Spex Fluorolog 2 spectrofluorometer.

[8] = tested on: SH-SY5Y neuroblastoma cells; experiment: Cell survival and proliferation (alamar Blue, CyQuant) in SH-SY5Y neuroblastoma cells; assay type: cell-based, human; details: alamar Blue; FIG. 11a
Procedure: as §3

[9] = tested on: TACE; experiment: TACE assay in rat primary neurons; assay type: cell-based; details: primary neurons from rat hippocampus; FIGS. 9b, c
Procedure: as §4

[10] = tested on: PKC; details: read-out: affinity for PKC, ECS50; cited from earlier work

Compound: CCCCCC1OC1C/C=C\CCCCCCCC(=O)OC (stereo in doubt) [BR-117, vernolic acid methyl ester]
- effect on PKC ([1]; FIG. 4): little or no effect

Compound: CCC1CC1CC1CC1CC1CC1CCCCCCCCO (stereo not drawn) [BR-104, linolenic alcohol tricyclopropane]
- effect on PKC ([1]; FIG. 4): little or no effect

Compound: CCCCCC1CC1CC1CC1CCCCCCCCO (stereo not drawn) [BR-105, linoleic alcohol dicyclopropane]
- effect on PKC ([1]; FIG. 4): little or no effect

Compound: CCCCC[C@H]1O[C@H]1CC1CC1CCCCCCCC(=O)OC (stereo partly drawn) [BR-109, vernolic acid methyl ester cyclopropane]
- effect on PKCε ([1]; at concentrations above 1 μM, FIG. 4): inhibited

Compound: CCC1CC1CC1CC1CC1CC1CC1CC1CC1CC1CCCC(=O)OC (stereo not drawn) [BR-114]
- activation of purified PKCε [1]: activated purified PKCε to a similar extent
- concentration needed to activate PKC, times lower than for BR-101 (DCP-LA) [1]: approx. 100 times

Compound: CCCCCC1CC1CC1CC1CC1CC1CC1CC1CCCC(=O)OC (stereo not drawn) [BR-115]
- activation of purified PKCε [1]: activated purified PKCε to a similar extent
- concentration needed to activate PKC, times lower than for BR-101 (DCP-LA) [1]: approx. 100 times

Compound: CCC/C=C/C=C/C(=O)O[C@H]1/C(=C/C(=O)OC)C[C@H]2C[C@H]([C@@H](C)O)OC(=O)C[C@H](O)C[C@@H]3C[C@H](OC(C)=O)C(C)(C)[C@](O)(C[C@@H]4C/C(=C/C(=O)OC)C[C@H](/C=C/C(C)(C)[C@]1(O)O2)O4)O3 [bryostatin]
- rate of learning [2]: dramatically increase the rate of learning
- downregulation of PKC following activation ([3]; 0.04 nM and 0.2 nM): 20%
- time by which PKC downregulation returned to baseline ([3]; 0.04 nM and 0.2 nM): ≤ 24 h
- activation of PKC ([3]; 0.04 nM and 0.2 nM, data not shown): 2 fold
- PKC activity (downregulation) at 8 h ([3]; data not shown): at or near the baseline
- levels of intracellular Aβ ([4]; FIG. 7a): markedly reduced
- levels of secreted Aβ ([4]; FIG. 7b): markedly reduced
- ECE activity [5]: sustained increase
- increase in initial rate of a-secretase activity ([6]; 10 pM): 16 fold
- increase in initial rate of a-secretase activity ([6]; 100 pM): 132 fold
- TACE activity [7]: small increases
- effect on cell survival [8]: no effect
- TACE activity [9]: small increases

Compound: CCCCCCCCCCCCCC(=O)O[C@@H]1[C@@H](C)[C@@]2(O)[C@@H](C=C(CO)C[C@]3(O)C(=O)C(C)=C[C@@H]23)[C@@H]2C(C)(C)[C@]12OC(C)=O [phorbol 12-myristate 13-acetate]
- PKC activity (downregulation) at 8 h ([3]; data not shown): strongly downregulated

Compound: epoxystearic acid [BR-116]
- effect on PKC ([1]; FIG. 4): little or no effect

Source: US11820745B2, “PKC-activating compounds for the treatment of neurodegenerative diseases” (Synaptogenix, Inc., priority 2008, dated 2023)
